Reference: patent publication US8148431B2, “Osteogenesis promoter containing β-cryptoxanthin as the active ingredient” (Kemin Health, L.C., priority 2002, dated 2012)
Marks after values point to notes of the source that are not given here.

Columns and labels:
Assay type in all cases: in vivo, Wistar male rats
[1] = system: rats, femoral diaphysis tissue; assay: Oral administration to rats: bone DNA level in diaphysis tissue; details: for Bone DNA level: diaphysis tissue
Procedure: (§1) DNA level was determined as an index of the number of cells in the bone tissue. After the culture in an incubator, the tissue pieces were washed with 0.25 M sucrose solution and then the wet weight of them was determined. They were pulverized in 4 ml of 0.1 N NaOH. After the osmosis at 4° C. for 24 hours, the liquid mixture was centrifuged. The supernatant was taken as the sample and determined by a method of Ceriotti et al. (J. Biol. Chem., 241; 34-77, 1951). Namely, 1 ml of concentrated hydrochloric acid and 1 ml of 0.04% indole solution were added to 2 ml of the sample and then the resultant mixture was heated to 100° C. in boiling water. After quenching followed by the extraction with 4 ml of chloroform, the chloroform layer was taken to determine bone DNA level with a spectrophotometer (490 nm).
(§2) A solution of β-cryptoxanthin in corn oil having one of three kinds of concentration (10, 25 and 50 μg/ml corn oil) was orally administered to rats (Wistar male rats; 4 to 5 weeks old) in an amount/100 g body weight with a probe once a day for 7 days. The rats were sacrificed 24 hours after the final administration. The femurs were excised. The muscles, etc. were taken out and each femur was divided into diaphysis and metaphysis to determine the bone components.
(§3) Tests were conducted to examine whether the bone components are increased by the oral administration of β-cryptoxanthin to rats or not. β-cryptoxanthin was administered for 7 days (10, 25 or 50 μg/100 g body weight/day) and then calcium level in the bone tissue, determination of alkaline phosphatase activity (enzyme for the acceleration of the calcification of bones) and the amount of deoxyribonucleic acid (DNA: index of the number of the cells in the bone tissue) were determined by the same methods as those in Example 1. In each test group, the determination was conducted 6 times and the results were represented by the average value and the standard error. The significant difference was determined by Student's t-test. The result was compared with that of the control. When P value was not higher than 0.01 (*) as compared with the control, the results were statistically significant.

[2] = system: rats, femoral metaphysis tissue; assay: Oral administration to rats: bone alkaline phosphatase activity in metaphysis tissue; details: for Bone alkaline phosphatase activity: metaphysis tissue
Procedure: (§4) The expression level of alkaline phosphatase, which is the most important enzyme for the acceleration of the calcification of bones, was examined. The tissue pieces cultured in the incubator were washed in 0.25 M sucrose solution, then pulverized in 3 ml of 65 mM barbital buffer (pH 7-4) and treated with ultrasonic waves. The resultant liquid was centrifuged. The supernatant, as the enzyme solution, was determined by a method of Walter ad Schutt in Method of Enzymatic Analysis, Vol. 1-2, p. 856, Academic Press, New York, 1965). Namely, this method was carried out as follows: p-nitrophenylphosphoric acid was used as the substrate. 0.05 ml of the enzyme solution was added to 2 ml of diethanolamine buffer (pH 9.8). After the incubation at 37° C. for 30 minutes, 10 ml of 0.05 N NaOH was added to the mixture. The absorbance (405 nm) was determined with a spectrophotometer to determine bone alkaline phosphatase activity of a bone remedy or a compound known to be effective for the bones.
as §2, §3

[3] = system: rats, femoral metaphysis tissue; assay: Oral administration to rats: bone DNA level in metaphysis tissue; details: for Bone DNA level: metaphysis tissue
Procedure: as §1, §2, §3

[4] = system: rats, femoral diaphysis tissue; assay: Oral administration to rats: bone alkaline phosphatase activity in diaphysis tissue; details: for Bone alkaline phosphatase activity: diaphysis tissue
Procedure: as §4, §2, §3

[5] = oral 10 μg/100 g body weight/day for 7 days
[6] = oral 25 μg/100 g body weight/day for 7 days
[7] = oral 50 μg/100 g body weight/day for 7 days
[8] = 10, 25 or 50 μg/100 g body weight/day, 7 days

CC1=C(/C=C/C(C)=C/C=C/C(C)=C/C=C/C=C(C)/C=C/C=C(C)/C=C/C2=C(C)C[C@@H](O)CC2(C)C)C(C)(C)CCC1 [β-cryptoxanthin]
Effect on DNA in the bone tissue, diaphysis, after oral administration (in words) ([1]; 25 or 50 μg/100 g body weight/day, 7 days): significantly increased
Bone DNA level [1, 5]: 1.95 ± 0.18 mg/g bone wet weight
Bone DNA level [1, 6]: 3.01 ± 0.23* mg/g bone wet weight
Bone DNA level [1, 7]: 2.53 ± 0.20* mg/g bone wet weight
Effect on alkali phosphatase activity in the metaphysis tissue after oral administration (in words) [2, 8]: significantly increased
Bone alkaline phosphatase activity [2, 5]: 2.21 ± 0.023* μmol/min/mg protein
Bone alkaline phosphatase activity [2, 6]: 2.545 ± 0.029* μmol/min/mg protein
Bone alkaline phosphatase activity [2, 7]: 1.92 ± 0.015* μmol/min/mg protein
Effect on DNA in the bone tissue, metaphysis, after oral administration (in words) [3, 8]: significantly increased
Bone DNA level [3, 5]: 4.10 ± 0.24* mg/g bone wet weight
Bone DNA level [3, 6]: 4.25 ± 0.21* mg/g bone wet weight
Bone DNA level [3, 7]: 4.01 ± 0.18* mg/g bone wet weight
Effect on alkali phosphatase activity in the diaphysis tissue after oral administration (in words) [4, 8]: significantly increased
Bone alkaline phosphatase activity [4, 5]: 2.38 ± 0.019* μmol/min/mg protein
Bone alkaline phosphatase activity [4, 6]: 2.35 ± 0.021* μmol/min/mg protein
Bone alkaline phosphatase activity [4, 7]: 1.85 ± 0.025* μmol/min/mg protein
